Tests used:
[1] = test system: MDA-231 cells; assay: 3D culture of MDA-231 breast cancer cells (growth, invasive morphology); assay type: cell-based
Protocol: (§1) Cells were then seeded at a density of 5,000 cells/well in Assay Medium (DMEM/F12+2% Horse Serum+10 μg/ml Insulin+0.5 μg/ml Hydrocortisone [+5 ng/ml EGF for MCF10A cultures]) containing 2% Matrigel.
(§2) Cells were fixed using 2% formaldehyde at room temperature for at least 30 min. […] Primary antibodies were incubated with the cultures for 1-2 hr at room temperature, followed by washing, and addition of fluorescently-conjugated secondary antibodies for 40 min at room temperature. Nuclei were counterstained with DRAQ5 (Cell Signaling #4084) or Propidium Iodide (Sigma #P4170). Confocal microscopy was conducted using an Olympus IX81 confocal microscope and analyzed using Fluoview software.
(§3) Cells were treated on Day 1 or Day 4 of the 3D protocol (as described in the figure legends) and refed every 4 days with fresh drug. […] This range approximates clinically achievable serum concentrations in human patients (Dimitroulakos et al., 1999; Wong et al., 2002), • 6-Fluoromevalonate (200 μM) as previously described (Cuthbert and Lipsky, 1990) and YM-53601, FTI-277 or GTI-2133 at or above their reported IC50 in cells (Lerner et al., 1995; Ugawa et al., 2000; Vasudevan et al., 1999), and with • Fatostatin at either 2 μM or 20 μM as previously described (Kamisuki et al., 2009).

[2] = test system: MDA-231.shp53 cells; conditions: 25 μM from Day 1, 8 days, +DOX
Protocol: (§4) Three-dimensional culture was carried out as previously described (Debnath et al., 2003). Briefly, 8-well chamber slides were lined with 50 μl growth factor reduced Matrigel (BD Biosciences). […] Cells were refed with Assay Medium containing 2% Matrigel every 4 days. For RNA/protein analysis from 3D cultures, 35 mm plates were lined with 500 μl Matrigel and cells were seeded at a density of 225,000 cells/plate in Assay Medium+2% Matrigel. Cells were harvested using Cell Recovery Solution (BD Biosciences) according to the manufacturer's instructions.

[3] = test system: MDA-468 cells; assay: 3D culture of MDA-468 breast cancer cells (growth, morphology); assay type: cell-based
Protocol: as §1, §2, §3

[4] = biological target: T1, squalene synthase (Homo sapiens, UniProt P37268); conditions: Ugawa et al., 2000; cited from earlier work
T1 sequence (P37268 1-417): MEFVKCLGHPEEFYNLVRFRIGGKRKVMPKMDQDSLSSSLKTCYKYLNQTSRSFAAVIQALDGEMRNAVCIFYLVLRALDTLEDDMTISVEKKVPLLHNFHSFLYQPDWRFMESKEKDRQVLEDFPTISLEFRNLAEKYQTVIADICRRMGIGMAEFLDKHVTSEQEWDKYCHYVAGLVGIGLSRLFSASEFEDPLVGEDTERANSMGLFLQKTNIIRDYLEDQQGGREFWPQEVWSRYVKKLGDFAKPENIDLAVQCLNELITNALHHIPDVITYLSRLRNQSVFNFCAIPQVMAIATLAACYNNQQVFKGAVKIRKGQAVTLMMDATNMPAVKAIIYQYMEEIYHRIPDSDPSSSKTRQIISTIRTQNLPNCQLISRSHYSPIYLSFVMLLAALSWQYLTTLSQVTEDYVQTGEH

[5] = test system: MCF10A cells; assay: 3D culture of non-malignant MCF10A mammary epithelial cells (acinar morphology, luminal clearance); assay type: cell-based, human; conditions: 1 mM, 8 days
Protocol: Cells were fixed using 2% formaldehyde at room temperature for at least 30 min. […] Primary antibodies were incubated with the cultures for 1-2 hr at room temperature, followed by washing, and addition of fluorescently-conjugated secondary antibodies for 40 min at room temperature. Nuclei were counterstained with DRAQ5 (Cell Signaling #4084) or Propidium Iodide (Sigma #P4170). Confocal microscopy was conducted using an Olympus IX81 confocal microscope and analyzed using Fluoview software. Cells were treated on Day 1 or Day 4 of the 3D protocol (as described in the figure legends) and refed every 4 days with fresh drug. […] This range approximates clinically achievable serum concentrations in human patients (Dimitroulakos et al., 1999; Wong et al., 2002), • 6-Fluoromevalonate (200 μM) as previously described (Cuthbert and Lipsky, 1990) and YM-53601, FTI-277 or GTI-2133 at or above their reported IC50 in cells (Lerner et al., 1995; Ugawa et al., 2000; Vasudevan et al., 1999), and with • Fatostatin at either 2 μM or 20 μM as previously described (Kamisuki et al., 2009).

[6] = test system: MDA-468.shp53 cells; assay: Add-back in 3D culture of MDA-468.shp53 cells depleted of mutant p53 (+DOX); assay type: cell-based; conditions: MVA and MVAP added together, 1 mM each, from Day 1, 8 days
Protocol: as §4

[7] = biological target: farnesyltransferase (Homo sapiens, UniProt P49354+P49356); conditions: whole cells; Lerner et al., 1995; cited from earlier work
[8] = biological target: geranylgeranyl transferase (Homo sapiens, UniProt P49354+P53609); conditions: low micromolar concentrations; Lerner et al., 1995; cited from earlier work
[9] = test system: squalene synthesis; conditions: low micromolar concentrations; Lerner et al., 1995; cited from earlier work
[10] = test system: MDA-231 cells; assay: MDA-231 subcutaneous tumor growth in NOD-SCID mice; assay type: in vivo; conditions: 200 mg/kg/day, after 21 days of treatment
Protocol: 2×10^6 MDA-231 cells were injected subcutaneously into 8 week-old NOD-SCID mice. […] Tumor measurements were performed weekly using calipers. After 21 days of treatment, mice were sacrificed and tumors were extracted and weighed. Tumor volumes as a function of time (left) and tumor weights at day 21 (right) are presented. *denotes p<0.01, **denotes p<0.001 using a two-tailed students t-test. […] 2×10^6 MDA-231 cells were injected subcutaneously into 8 week-old NOD-SCID mice. […] Tumor measurements were performed weekly using calipers. After 21 days of treatment, mice were sacrificed and tumors were extracted and weighed. Tumor volumes as a function of time (left) and tumor weights at day 21 (right) are presented. *denotes p<0.01, **denotes p<0.001 using a two-tailed students t-test.

[11] = Serum level at the dose used in the mouse experiments; assay type: in vivo; conditions: mice, 200 mg/kg/day

SMILES: CC(C)=CCC/C(C)=C/CC/C(C)=C/CC/C(C)=C/COP(=O)(O)OP(=O)(O)O [Geranylgeranyl pyrophosphate]
- rescue of the morphological effects of HMG-CoA reductase inhibition ([1]; MDA-231 with Simvastatin 1 μM, 25 μM GGPP, 8 days): partially rescue
- rescue of the morphological effects of mutant p53 depletion [2]: partially rescue

SMILES: CC(C)C[C@H](NC(=O)c1ccc(NCc2cnc[nH]2)cc1-c1cccc2ccccc12)C(=O)O [GTI-2133]
- effect on growth of MDA-231 cells in 3D culture ([1]; 1 uM, added Day 1, 8 days): profound impact
- effect on invasive morphology of MDA-231 cells in 3D culture ([1]; 1 uM, added Day 1, 8 days): profound impact

SMILES: CC[C@H](C)C(=O)O[C@H]1CCC=C2C=C[C@H](C)[C@H](CC[C@@H]3C[C@@H](O)CC(=O)O3)[C@H]21 [Mevastatin]
- 3D morphology of MDA-468 cells ([3]; 1 μM, added Day 4, 13 days): profoundly affects
- 3D morphology of MDA-231 cells ([1]; 1 μM, added Day 4, 13 days): profoundly affects

SMILES: F/C(COc1ccc2c(c1)[nH]c1ccccc12)=C1/CN2CCC1CC2 [YM-53601]
- effect on growth of MDA-231 cells in 3D culture ([1]; 1 uM, added Day 1, 8 days): only a mild effect
- killing of cancer cells in 3D culture ([1]; 10 uM): killed all the cancer cells
- concentrations that inhibit squalene synthase [4]: submicromolar

SMILES: C[C@@](O)(CCO)CC(=O)O (racemic) [mevalonic acid]
- rescue of the phenotypic effects of statin treatment in 3D culture ([3]; MDA-468 treated with Simvastatin 1 μM, supplemented): blocked many of the phenotypic effects of statins
- rescue of the phenotypic effects of statin treatment in 3D culture ([1]; MDA-231 treated with Simvastatin 1 μM, supplemented): blocked many of the phenotypic effects of statins
- luminal clearance in MCF10A cells [5]: sufficient to block luminal clearance
- effect on phenotypic reversion caused by mutant p53 knockdown [6]: dramatically inhibit

SMILES: COC(=O)[C@H](CCSC)NC(=O)c1ccc(NC[C@@H](N)CS)cc1-c1ccccc1 [FTI-277]
- effect on growth of MDA-231 cells in 3D culture ([1]; 1 uM, added Day 1, 8 days): only a mild effect
- concentrations that block farnesylation via inhibition of farnesyltransferase [7]: nanomolar
- effect on geranylgeranyl transferase [8]: no effect
- effect on squalene synthesis [9]: no effect

SMILES: O=C(O)CC(O)(CF)CCO (stereo not drawn) [6-fluoromevalonate, 6-Fluoromevalonate]
- phenotypic effects in 3D culture compared with HMG-CoA reductase inhibition by statins ([3]; MDA-468, 200 μM, added Day 1, 8 days): remarkably similar phenotypic effects
- phenotypic effects in 3D culture compared with HMG-CoA reductase inhibition by statins ([1]; MDA-231, 200 μM, added Day 1, 8 days): remarkably similar phenotypic effects

SMILES: CCC(C)(C)C(=O)O[C@H]1C[C@@H](C)C=C2C=C[C@H](C)[C@H](CC[C@@H]3C[C@@H](O)CC(=O)O3)[C@H]21 [Simvastatin]
- reduction of tumor size [10]: about 40%
- serum levels [11]: about 100 micromolar
